Columns and labels:
[1] = test system: KB tumor cells; experiment: Metabolite rescue of growth inhibition in KB cells; assay type: cell-based, human; settings: glycine- and nucleoside-free media; for Protection from growth inhibition by glycine plus adenosine over adenosine alone: 160 μM glycine combined with 60 μM adenosine; for Protection from growth inhibition by adenosine: inhibitor up to 1000 nM, 60 μM adenosine alone
Procedure: Upper panel: schematic of C1 metabolism. Undefined abbreviations include the following: DHF, dihydrofolate; THF, tetrahydrofolate; FAICAR, formyl 5-aminoimidazole-4-carboxamide ribonucleotide; fGAR, formyl GAR; and 5,10-meTHF, 5,10-methylene tetrahydrofolate. Lower panels: KB cells were plated (4000 cells/well) in glycine-, nucleoside-, and folate-free RPMI 1640 medium with 10% dialyzed fetal bovine serum, antibiotics, L-glutamine, and 2 nM leucovorin over a range of inhibitor concentrations in the presence of adenosine (60 μM), glycine (160 μM), thymidine (10 μM), or AICA (320 μM). As shown, combined glycine plus adenosine or AICA was also tested to identify potential mitochondrial C1 targeting.[45] Cell proliferation was assayed with a fluorescence-based assay.[26] Data are representative of at least triplicate experiments (presented as mean values plus/minus standard errors). Methods are described in the Experimental Section, and additional metabolite rescue data for 4, 5, and 8–11 are presented in Figure S3 (Supporting Information).
Metabolite “rescue” experiments have been used to identify targeted pathways for novel antifolate inhibitors including de novo purine nucleotide and thymidylate biosynthesis (protection by adenosine and thymidine, respectively)[25]−[27],[29],[30],[32],[43],[45]−[47] and mitochondrial C1 metabolism (protection by glycine and adenosine).[45] To gain insights into the targeted pathways that contribute to the loss of KB tumor cell proliferation upon treatment with compounds 3–9, we tested the reversal of growth inhibition by the active compounds in Table 1 (up to 1000 nM) in glycine- and nucleoside-free media in the presence of 60 μM adenosine, 160 μM glycine, or 10 μM thymidine alone or with combined adenosine and glycine. The use of glycine- and nucleoside-free media for these experiments expands the ability to identify causal intracellular targets (including previously unrecognized mitochondrial targets[45]) that can be confirmed by targeted metabolomics and direct in vitro assays (below). […] The results of these experiments are shown in Figure 7 (lower panel) and in Figure S3 (Supporting Information).
AICA circumvents the first folate-dependent enzyme, GARFTase, and is directly metabolized to ZMP (AICAR), thus providing a substrate for AICARFTase[26],[32],[46] (Figure 7, upper panel). This distinguishes primary inhibition at GARFTase (protection by AICA) versus AICARFTase (incomplete protection by AICA) for inhibitors of de novo purine biosynthesis.[25]
Additional proliferation assays with metabolite rescue used KB cells to identify the targeted pathway and enzyme(s) in folate- and glycine-free RPMI1640, DFBS, 2 mM glutamine, and antibiotics. […] These assays have been previously described.[25],[26],[45]

[2] = test system: PC43-10 CHO cells (expresses only human RFC); experiment: Cell proliferation assay, PC43-10 CHO subline; assay type: cell-based, Chinese hamster; settings: 96 h, up to 1000 nM, 25 nM leucovorin, mean (standard error); for IC50: Homo sapiens, PC43-10
From the text: We used a unique panel of engineered Chinese hamster ovary (CHO) sublines derived from a transporter-null MTXRIIOua^R2-4 CHO subline (R2) and designed to individually express human FRα (RT16), FRβ (D4), RFC (PC43-10), or PCFT (R2/PCFT).[39]−[42] As the CHO sublines are isogenic and differ only in the presence or absence of the human folate transporters, differences in the extent of inhibition of cell proliferation between the cell lines upon treatment with the various compounds provide a robust readout of transport specificities.[25],[26],[29],[30],[43]
(§1) The CHO sublines were treated for 96 h with a range of drug concentrations up to 1000 nM; cell viabilities were measured with a fluorescence assay.[26] […] As a control, we used transporter-null R2 cells.[42] To extend studies to human tumor cells, we also performed experiments in RFC-, PCFT-, and FRα-expressing KB tumor cells.[44] To confirm the contribution of FR-mediated uptake to antitumor activity, for KB cells, we added 200 nM folic acid, which inhibits FR uptake by direct competition without effects on either RFC or PCFT.[25],[26],[28]−[30],[43]
The MTXRIIOua^R2-4 RFC-, PCFT-, and FRα-null Chinese hamster ovary (CHO) cell line (R2) was a gift from Dr. Wayne Flintoff (University of Western Ontario).[40],[42] Isogenic CHO cell lines were subsequently derived from R2 cells by transfection with RFC, PCFT, or FRα cDNAs to generate PC43-10 (expresses only human RFC), R2/PCFT4 (expresses only human PCFT), RT16 (expresses only human FRα), and D4 (expresses only human FRβ).[25],[26],[39]
(§2) The CHO sublines were cultured in α-minimal essential medium (α-MEM) supplemented with 100 U/mL penicillin/100 μg/mL streptomycin, 2 mM L-glutamine, and 10% bovine calf serum (Sigma-Aldrich). For the PC43-10, R2/PCFT4, RT16, and D4 sublines, 1.5 mg/mL G418 was also added. Seventy-two hours prior to in vitro proliferation assays (below), RT16 and D4 CHO cells were grown in folate-free RPMI with dialyzed fetal bovine serum (DFBS) (Invitrogen) supplemented with 100 U/mL penicillin/[…] streptomycin and 2 mM L-glutamine. FRα-expressing KB nasopharyngeal carcinoma cells were acquired from the American Type Culture Collection (Manassas, VA); cells were grown in complete folate-free RPMI 1640 supplemented with 10% fetal bovine serum, 100 U/mL penicillin/100 μg/mL streptomycin, and 2 mM L-glutamine. Cell lines were authenticated by STR analysis (Genetica DNA Laboratories, Burlington, NC) and tested for Mycoplasma by PCR (Venor GeM Mycoplasma Detection Kit, Sigma). Frozen stocks were generated from authenticated Mycoplasma-free cultures.
(§3) Cell proliferation assays used CHO and KB cells cultured in folate-free-RPMI 1640 media with 10% DFBS, 2 mM L-glutamine, and 100 U/mL penicillin/100 μg/mL streptomycin supplemented with 2 nM (KB, RT16, D4) or 25 nM (R2, PC43-10, R2/PCFT4) leucovorin.[25],[26],[30] Parallel incubations with 200 nM folic acid were performed in viability assays to confirm FR-mediated drug uptake. Cells were plated in 96-well dishes at 2500–5000 cells/well in 200 μL media and treated with a range of C1 inhibitors spanning 0 to 1 μM. Cells were treated at 37 ° C with 5% CO2, and numbers were assayed after 96 h using CellTiter-blue (Promega, Madison, WI) and a fluorescence plate reader.[25],[26]

[3] = test system: KB human tumor cells (RFC/FRα/PCFT); experiment: Cell proliferation assay, KB tumor cells (with or without 200 nM folic acid); assay type: cell-based; settings: 96 h, 2 nM leucovorin, no folic acid, mean (standard error)
Procedure: as §1, §2, §3

SMILES | melting point [°C] | Protection from growth inhibition by glycine plus adenosine over adenosine alone [1] | IC50 [2] [nM] | IC50 [3] [nM] | Protection from growth inhibition by adenosine [1] | IC50 RFC PC43-10 [2]
Nc1nc2sc(CCCc3ccc(C(=O)N[C@@H](CCC(=O)O)C(=O)O)cc3)cc2c(=O)[nH]1 [Compound 1] |  | substantially enhanced and was complete |  |  |  | 
Nc1nc2sc(CCCCc3ccc(C(=O)N[C@@H](CCC(=O)O)C(=O)O)nc3)cc2c(=O)[nH]1 [Compound 4, (5-(4-(2-Amino-4-oxo-3,4-dihydrothieno[2,3-d]pyrimidin-6-yl)butyl)picolinoyl)-L-glutamic Acid] |  | slightly and reproducibly enhanced | > 1000 | 2.11 | substantially protective | 
Nc1nc2sc(CCCc3ccc(C(=O)N[C@@H](CCC(=O)O)C(=O)O)c(F)c3)cc2c(=O)[nH]1 [Compound 6, (4-(3-(2-Amino-4-oxo-3,4-dihydrothieno[2,3-d]pyrimidin-6-yl)propyl)-2-fluorobenzoyl)-L-glutamic Acid] | 128 to 129.8 | substantially enhanced and was complete | > 1000 | 7.19 |  | 
Nc1nc2sc(CCCc3csc(C(=O)N[C@@H](CCC(=O)O)C(=O)O)c3F)cc2c(=O)[nH]1 [Compound 8, (4-(3-(2-Amino-4-oxo-3,4-dihydrothieno[2,3-d]pyrimidin-6-yl)propyl)-3-fluorothiophene-2-carbonyl)-L-glutamic Acid] |  |  | 560 | 6.84 | completely protective | slight inhibition
Nc1nc2sc(CCCCc3csc(C(=O)N[C@@H](CCC(=O)O)C(=O)O)c3F)cc2c(=O)[nH]1 [Compound 9, (4-(4-(2-Amino-4-oxo-3,4-dihydrothieno[2,3-d]pyrimidin-6-yl)butyl)-3-fluorothiophene-2-carbonyl)-L-glutamic Acid] | 142.3 to 143.5 | slightly and reproducibly enhanced | > 1000 | 2.63 | substantially protective | 

Now from value to molecule, other results behind:

melting point [°C] | SMILES | Protection from growth inhibition by glycine plus adenosine over adenosine alone [1] | IC50 [2] [nM] | IC50 [3] [nM] | Protection from growth inhibition by adenosine [1] | IC50 RFC PC43-10 [2]
125.8 to 126.2 | Nc1nc2sc(CCCCc3cccc(C(=O)N[C@@H](CCC(=O)O)C(=O)O)n3)cc2c(=O)[nH]1 [Compound 3, (6-(4-(2-Amino-4-oxo-3,4-dihydrothieno[2,3-d]pyrimidin-6-yl)butyl)picolinoyl)-L-glutamic Acid] |  | > 1000 |  |  | 
128 to 129.7 | Nc1nc2sc(CCCCc3cnc(C(=O)N[C@@H](CCC(=O)O)C(=O)O)c(F)c3)cc2c(=O)[nH]1 [Compound 5, (5-(4-(2-Amino-4-oxo-3,4-dihydrothieno[2,3-d]pyrimidin-6-yl)butyl)-3-fluoropicolinoyl)-L-glutamic Acid] |  | > 1000 | 5.05 | completely protective | 
121.7 to 122.6 | Nc1nc2sc(CCCCc3ccc(C(=O)N[C@@H](CCC(=O)O)C(=O)O)c(F)c3)cc2c(=O)[nH]1 [Compound 7, (4-(4-(2-Amino-4-oxo-3,4-dihydrothieno[2,3-d]pyrimidin-6-yl)butyl)-2-fluorobenzoyl)-L-glutamic Acid] | slightly and reproducibly enhanced | > 1000 | 5.27 | substantially protective | 
